Laboratory results: patent publication US8580790B2, “(Heterocycle/condensed piperidine)-(piperazinyl)-1-alkanone or (heterocycle/condensed pyrrolidine)-(piperazinyl)-1-alkanone derivatives and use thereof as p75 inhibitors” (Sanofi, priority 2009, dated 2013)

What was measured:
[1] = target: T1, human p75^NTR receptor (Homo sapiens, UniProt P08138); assay: Dimerization of the p75NTR receptor independently of its ligand (soluble p75NTR-alkaline phosphatase binding to SK-N-BE Bep 75 cells); format: cell-based; conditions: soluble p75NTR-alkaline phosphatase 10 nM, 1 h preincubation at 37° C.
T1 construct: the whole form of the human p75^NTR receptor; expressed in transfected cells; the soluble AP fusion comes from the supernatant of transiently transfected HEK293 cells
T1 sequence (P08138 29-427): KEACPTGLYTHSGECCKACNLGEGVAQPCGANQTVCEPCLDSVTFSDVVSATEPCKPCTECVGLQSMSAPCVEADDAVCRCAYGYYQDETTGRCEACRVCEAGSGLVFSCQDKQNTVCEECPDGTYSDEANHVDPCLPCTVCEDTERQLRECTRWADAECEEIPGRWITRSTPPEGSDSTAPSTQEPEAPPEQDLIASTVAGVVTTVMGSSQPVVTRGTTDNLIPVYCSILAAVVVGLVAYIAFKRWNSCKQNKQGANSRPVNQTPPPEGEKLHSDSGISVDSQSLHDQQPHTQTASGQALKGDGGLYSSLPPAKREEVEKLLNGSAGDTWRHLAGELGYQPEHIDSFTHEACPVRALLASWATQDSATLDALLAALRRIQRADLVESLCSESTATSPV
Experimental: (§1) The SK-N-BE parent strain (human neuroblastoma) and the Bep 75 clone, stably expressing the whole form of the human p75^NTR receptor (SK-N-BE Bep 75) are cultured conventionally in an RPMI culture medium containing FCS (5%), sodium pyruvate (1 mM) and glutamine (4 mM). For the SK-N-BE Bep 75 cells, hygromycin ([…] of medium) is added as selection agent.
Study of the dimerization of the p75^NTR receptor independently of its ligand.
The p75^NTR receptor dimerization study is carried out on a cell suspension of the SK-N-BE Bep 75 strain. The cells (2.5×10^4 cells/well) are placed in wells (96-well plate) for 24 h, and then preincubated for 1 h at 37° C. in the presence or absence of the compounds according to the invention. Supernatant is then added, this supernatant being derived from the culture of HEK293 human cells of renal origin expressing, after 48 h of transfection, and secreting a soluble form of the p75^NTR receptor (extracellular part of the receptor) coupled to an alkaline phosphatase, at the final concentration of 10 nM. The quantification of the specific binding of the soluble p75^NTR receptor to the receptor present on SK-N-BE Bep 75 cells is determined by measuring the alkaline phosphatase enzyme activity after incubation of the cells for 1 hour at 37° C. in the presence of the supernatant. After filtration and transfer of the filters into 24-well plates, the alkaline phosphatase activity is determined by adding CDP-Star chemiluminescent substrate (ready-to-use, Roche). The concentrations inhibiting 50% (Cl50) of the dimerization of the p75^NTR receptor, of the compounds according to the invention, are low and range from 10^−6 to 10^−11M.

[2] = tested on: human neuroblastoma strains SH-SY-5Y and SK-N-BE Bep 75; assay: Measurement of NGF-induced apoptosis (cell death detection ELISA); format: cell-based; conditions: SH-SY5Y, NGF 10 ng/ml, 48 h (SH-SY-5Y) or 24 h (SK-N-BE Bep 75), read-out: IC50 of inhibitory activity on NGF-induced apoptosis
Experimental: The SH-SY-5Y strain (human neuroblastoma) is cultured conventionally in a DMEM culture medium (Dulbecco's Modified Eagle's Medium) (Gibco BRL, France) containing FCS (5%) (foetal calf serum) (Boehringer Mannheim, Germany), sodium pyruvate (1 mM) and glutamine (4 mM) in culture flasks coated with collagen (Becton Dickinson, France).
as §1
The cells (human neuroblastoma strains SH-SY-5Y and SK-N-BE Bep 75) are placed in 35 mm diameter Petri dishes (Biocoat collagen I, (10^5 cells/well)) in an appropriate culture medium containing 5% of FCS, for 24 h. […] The degrees of apoptosis are measured 48 hours after the treatments in the case of the SH-SY-5Y strain, and 24 hours after in the case of the SK-N-BE Bep 75 strain, by quantification of the DNA fragment-associated cytoplasmic histones (cell death detection ELISA, Boehringer Mannheim, Germany). The degrees of apoptosis are expressed as amount of oligonucleosomes/10^5 cells. […]

Compound | IC50 [1] [nM] | melting point [°C] | IC50 [2] [nM]
O=C(O)c1ccc(N2C3CCC2CN(CC(=O)N2CCc4nn(-c5ccccc5)cc4C2)C3)nc1 [compound 24, 6-{3-[2-oxo-2-(2-phenyl-2,4,6,7-tetrahydropyrazolo[4,3-c]pyridin-5-yl)ethyl]-3,8-diazabicyclo[3.2.1]oct-8-yl}nicotinic acid] | 1.55 | 202 to 206 | –
C[C@@H]1CN(c2ccc(C(F)(F)F)cn2)C[C@H](C)N1CC(=O)N1CCc2nc(-c3ccccc3)sc2C1 [compound 9, 2-[(2S,6R)-2,6-dimethyl-4-(5-trifluoromethylpyridin-2-yl)piperazin-1-yl]-1-(2-phenyl-6,7-dihydro-4H-thiazolo[5,4-c]pyridin-5-yl)ethanone] | 0.73 | – | 0.72
COC(=O)c1ccc(N2C3CCC2CN(CC(=O)N2CCc4nn(-c5ccccc5)cc4C2)C3)nc1 [compound 19, 6-{3-[2-oxo-2-(2-phenyl-2,4,6,7-tetrahydropyrazolo[4,3-c]pyridin-5-yl)ethyl]-3,8-diazabicyclo[3.2.1]oct-8-yl}nicotinic acid methyl ester] | 14 | 204 to 205 | –
O=C(CN1CCN(c2ccc(C(F)(F)F)cn2)C(=O)C1)N1CCc2nc(-c3ccccc3)sc2C1 [compound 11, 4-[2-oxo-2-(2-phenyl-6,7-dihydro-4H-thiazolo[5,4-c]pyridin-5-yl)ethyl]-1-(5-trifluoromethylpyridin-2-yl)piperazin-2-one] | 1.9 | – | 4.46
